Results taken from patent US8153773B2, “Synthesis and use of anti-reverse phosphorothioate analogs of the messenger RNA cap” (Board of Supervisors of Louisiana State University and …, priority 2007, dated 2012).

Columns and labels:
murine eIF4E (28-217) = target: T1, murine eIF4E (28-217) (Mus musculus, UniProt P63073); assay: Binding affinities for eIF4E by fluorescence quenching; details: murine eIF4E (28-217); for KAS: equilibrium association constant, fluorescence quenching; for ΔG°: binding free energy calculated from KAS
T1 construct: (28-217) to phosphorothioate cap analogs, as determined
Experimental: Binding affinities of S analogs for murine eIF4E were determined by fluorescence quenching. Fluorescence titration measurements were carried out on an LS-50B spectrofluorometer (Perkin Elmer Co.) in 50 mM HEPES/KOH (pH 7.2), 100 mM KCl, 0.5 mM EDTA, 1 mM DTT at 20.0±0.2° C. Aliquots of 1 μl increasing concentration of cap analogue solutions were added to 1.4 ml of […] solutions. Fluorescence intensities (excitation at 280 nm with 2.5 nm bandwidth and detection at 337 nm with 4 nm bandwidth and 290 nm cut-off filter) were corrected taking into account sample dilution and the inner filter effect. Equilibrium association constants (KAS) were determined by fitting the theoretical dependence of the fluorescence intensity on the total concentration of cap analogue to the experimental data points according to equation described previously (See A. Niedzwiecka et al., “Biophysical studies of eIF4E cap-binding protein: recognition of mRNA 5′ cap structure and synthetic fragments of eIF4G and 4E-BP1 proteins,” J. Mol. Biol., vol. 319, pp. 615-635 (2002)). The concentration of protein was fitted as a free parameter of equilibrium equation showing amount of “active” protein. The final KAS was calculated as a weighted average of three to ten independent titrations, with the weights taken as the reciprocals of the numerical standard deviations squared. Numerical nonlinear least-squares regression analysis was performed using ORGIN 6.0 (Microcal Software Inc., USA). The Gibbs free energy of binding was calculated from the KAS value according to the standard equation ΔG°=−RTlnKAS.

hDcp2 = hDcp2 (Homo sapiens, UniProt Q8IU60); assay: In vitro RNA decapping assay with recombinant hDcp2; type: biochemical; details: capped 32P-labeled short RNA, recombinant hDcp2, anion exchange HPLC (FIG. 6)
Experimental: Dcp2 activity was measured with capped 48-nt oligonucleotides as substrates, a truncated form of luciferase mRNA (48 nucleotides). GST-hDcp2 was expressed in Escherichia coli and purified as described by Z. Wang et al., “The hDcp2 protein is a mammalian mRNA decapping enzyme,” Proc. Natl. Acad. Sci. U.S.A., vol. 99, pp. 12663-12668 (2002). Capped oligonucleotides were first subjected to digestion with GST-hDcp2 at 37° C. for 2 h in decapping buffer (10 mM Tris-HCl, pH 7.5, 100 mM potassium acetate, 2 mM magnesium acetate, 0.5 mM MnCl2, 2 mM dithiothreitol, and 0.1 mM spermine). See C. Piccirillo et al., “Functional characterization of the mammalian mRNA decapping enzyme hDcp2,” RNA, vol. 9, pp. 1138-1147 (2003). The reaction mixture was then extracted once with an equal volume of phenol and twice with chloroform, and RNA was precipitated with ethanol. Products of the decapping reaction were further digested with a cocktail of ribonucleases (RiboShredder; Epicentre) at 37° C. for 1 h. The products were resolved by anion-exchange HPLC on a 4.6×250-mm Partisil 10SAX/25 column (Whatman). The gradient consisted of water for 1 min, a linear gradient to 112 mM KH2PO4, pH 4.5, for 20 min, a linear gradient of 112-450 mM KH2PO4 for 15 min, a linear gradient of 450 mM to 1.5 M KH2PO4 for 15 min, and isocratic elution at 1.5 M of KH2PO4 for 9 min, all at a flow rate 1 ml/min.
We tested oligonucleotides capped with either of S-ARCAs for hydrolysis by recombinant hDcp2 to test whether mRNA capped with the various diastereomers of m2^7,2′-OGpppsG and m2^7,2′-OGppspG would differ in their sensitivity to cleavage by Dcp1/Dcp2. See generally Z. Wang et al., “The hDcp2 protein is a mammalian mRNA decapping enzyme,” Proc. Natl. Acad. Sci. U.S.A., vol. 99, pp. 12663-12668 (2002), and Z. Wang et al., “An mRNA Stability Complex Functions with Poly(A)-Binding Protein To Stabilize mRNA In Vitro”, Mol. Cell. Biol., vol. 19, pp. 4552-4560 (1999). Cap analogs used were initially unlabeled, so to follow the products of the digestion reaction we synthesized capped oligonucleotides in the presence of [α-^32P]GTP and a DNA template in which G was the first ribonucleotide specified after the promoter. The oligonucleotides capped with either of the S-ARCAs were subjected to Dcp2 digestion in vitro, after which the products were further digested with a cocktail of ribonucleases (RiboShredder from Epicenter). Any nucleotide on the 5′ side of a G residue acquired a ^32P-labeled 3′-phosphate group after ribonuclease digestion by nearest-neighbor transfer. Anion exchange chromatography was then used to resolve the labeled 3′-nucleoside monophosphates (3′-NMP*), at internal positions in the RNA, from labeled 5′-terminal products (FIG. 6). The latter comprise p3 Gp* derived from uncapped transcripts and m2^7,2′-OGp3 Gp* (when m2^7,2′-OGp3G was used), or pGp* resulting from capped RNA resistant or nonresistant to enzymatic cleavage, respectively. All cap analogs used were ARCAs, which ensured that they were incorporated into RNA exclusively in the correct orientation. This further guaranteed that only one 5′-terminal product (m2^7,2′-OGp3 Gp*) was observed upon ribonuclease treatment. Uncapped RNA is not a substrate for Dcp2, which explains why p3 Gp* product was observed after Dcp2 digestion.
See E. Grudzien et al., “Differential inhibition of mRNA degradation pathways by novel cap analogs,” J. Biol. Chem., vol. 281, pp. 1857-1867 (2006).

DcpS [1] = target: T2, DcpS (Homo sapiens, UniProt Q96C86); assay: Enzymatic hydrolysis by human DcpS; type: biochemical; design: key: the analogs assigned as resistant remained completely undigested under the applied conditions; the analogs assigned as hydrolyzed were hydrolyzed by DcpS with efficiency comparable to the respective unmodified parent compound; details: conditions giving complete degradation of unmodified parent within 40-90 min, RP HPLC
T2 sequence (Q96C86 1-337): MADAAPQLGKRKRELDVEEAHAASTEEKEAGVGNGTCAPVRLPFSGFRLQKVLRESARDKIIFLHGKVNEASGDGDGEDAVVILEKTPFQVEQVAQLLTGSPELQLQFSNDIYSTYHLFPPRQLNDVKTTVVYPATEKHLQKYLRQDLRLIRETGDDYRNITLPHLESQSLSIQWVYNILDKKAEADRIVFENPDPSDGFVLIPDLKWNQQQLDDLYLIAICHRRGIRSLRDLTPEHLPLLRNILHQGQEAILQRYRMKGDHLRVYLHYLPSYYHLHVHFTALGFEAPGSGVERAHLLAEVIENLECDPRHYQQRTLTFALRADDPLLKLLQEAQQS
Experimental: (§1) Human and nematode DcpS were expressed in Escherichia coli according to the procedures described previously (L. S. Cohen et al., “Nematode m7 GpppG and m3(2,2,7)GpppG decapping: activities in Ascaris embryos and characterization of C. elegans scavenger DcpS,” RNA, vol. 10, pp. 1609-1624 (2004)). Both proteins were stored at −80° C. in 20 mM Tris buffer, pH 7.5, containing 50 mM KCl, 0.2 mM EDTA, 1 mM DTT, 0.5 mM PMSF, and 20% glycerol. An appropriate cap analog at 1 mM concentration was treated with 5.0 or 7.0 μl of DcpS (from human or C. elegans, respectively) in 500 μl of 50 mM TRIS buffer, pH=7.9, containing 20 mM of MgCl2 and 60 mM of (NH4)2SO4 at 37° C. for 60-90 min. Every 15-20 min a 100 μl sample was collected from the reaction mixture and deactivated by incubation in 90° C. for 3 min. Collected samples were analyzed without further treatment by analytical RP HPLC using a linear gradient of methanol in 0.1 M KH2PO4, pH=6.0, from 0-50% within 15 min and UV-detection at 260 nm.
(§2) The new series of S-analogs were subjected to in vitro enzymatic hydrolysis catalyzed by DcpS from both human and C. elegans sources. In all experiments, the corresponding unmodified cap analog was used as a positive control, i.e., m^7GpppG for non-ARCA S-analogs and m2^7,2′-OGpppG for S-ARCAs. The amount of DcpS enzyme was optimized to provide complete degradation of the control substrate within 40-90 min. The samples collected from reaction mixtures at various time intervals were analyzed by RP HPLC (as described in Materials and Methods).
(§3) In Table 4, cap analogs at 4 μM concentration were subjected to enzymatic digestion by DcpS in conditions leading to complete degradation of the unmodified parent compound (i.e. m^7GpppG for non-ARCA S-analogs and m2^7,2′-OGpppG for ARCAs) within 40-90 min. Samples collected from reaction mixtures at various time intervals were analysed by RP HPLC with UV detection at 260 nm as described in Materials and Methods. […] The result was unchanged even if the reaction time was extended to 24 h, various amounts of enzyme were used, and composition of the reaction buffer was modified.

DcpS [2] = target: T3, DcpS (Caenorhabditis elegans, UniProt G5EFS4); assay: Enzymatic hydrolysis by C. elegans DcpS; type: biochemical; design: key: the analogs assigned as resistant remained completely undigested under the applied conditions; the analogs assigned as hydrolyzed were hydrolyzed by DcpS with efficiency comparable to the respective unmodified parent compound; details: conditions giving complete degradation of unmodified parent within 40-90 min, RP HPLC
T3 sequence (G5EFS4 1-311): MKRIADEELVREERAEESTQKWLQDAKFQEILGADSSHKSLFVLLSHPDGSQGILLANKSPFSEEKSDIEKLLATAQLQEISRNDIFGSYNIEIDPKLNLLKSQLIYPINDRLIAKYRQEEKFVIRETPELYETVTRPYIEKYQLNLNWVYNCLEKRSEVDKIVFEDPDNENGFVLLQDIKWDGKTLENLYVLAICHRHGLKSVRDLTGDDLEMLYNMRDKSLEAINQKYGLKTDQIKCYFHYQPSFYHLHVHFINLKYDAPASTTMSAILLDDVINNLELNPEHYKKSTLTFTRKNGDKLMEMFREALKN
Experimental: as §1, §2, §3

T1 sequence (P63073 28-217): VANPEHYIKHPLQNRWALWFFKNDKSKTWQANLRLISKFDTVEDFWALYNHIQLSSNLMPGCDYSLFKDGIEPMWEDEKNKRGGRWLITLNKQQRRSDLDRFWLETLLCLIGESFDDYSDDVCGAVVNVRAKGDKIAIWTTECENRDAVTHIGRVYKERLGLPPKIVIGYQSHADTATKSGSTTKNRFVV

CO[C@@H]1[C@H](O)[C@@H](COP(=O)(O)OP(=O)([O-])OP(=O)(O)OP(=O)(O)OC[C@H]2O[C@@H](n3cnc4c(=O)[nH]c(N)nc43)[C@H](O)[C@@H]2O)O[C@H]1n1c[n+](C)c2c(O)nc(N)nc21 [m^7,2′-OGppppG, reference compound]
KAS (murine eIF4E (28-217)): 99.8 ± 6.0 µM⁻¹

m2^7,2′-OGpppsG
hydrolysis of capped oligonucleotide by hDcp2 (hDcp2): no increase in stability toward hDcp2

m2^7,2′-OGpsppG
hydrolysis of capped oligonucleotide by hDcp2 (hDcp2): no increase in stability toward hDcp2

m^7GpppsG (D1) [Compound 1a]
ΔG° (murine eIF4E (28-217)): -9.88 ± 0.02 kcal/mol | KAS (murine eIF4E (28-217)): 23.6 ± 0.8 µM⁻¹ | Resistance to enzymatic hydrolysis by DcpS (human) (DcpS [1]): hydrolyzed | Resistance to enzymatic hydrolysis by DcpS (from C. elegans) (DcpS [2]): hydrolyzed

m^7GpppsG (D2) [Compound 1b]
ΔG° (murine eIF4E (28-217)): -9.54 ± 0.03 kcal/mol | KAS (murine eIF4E (28-217)): 13.1 ± 0.8 µM⁻¹ | Resistance to enzymatic hydrolysis by DcpS (human) (DcpS [1]): hydrolyzed | Resistance to enzymatic hydrolysis by DcpS (from C. elegans) (DcpS [2]): hydrolyzed

m^7GppspG (D1) [Compound 2a]
ΔG° (murine eIF4E (28-217)): -10.26 ± 0.01 kcal/mol | KAS (murine eIF4E (28-217)): 45.0 ± 1.1 µM⁻¹ | Resistance to enzymatic hydrolysis by DcpS (human) (DcpS [1]): hydrolyzed | Resistance to enzymatic hydrolysis by DcpS (from C. elegans) (DcpS [2]): hydrolyzed

m^7GppspG (D2) [Compound 2b]
ΔG° (murine eIF4E (28-217)): -9.87 kcal/mol | KAS (murine eIF4E (28-217)): 23.0 ± 0.4 µM⁻¹ | Resistance to enzymatic hydrolysis by DcpS (human) (DcpS [1]): hydrolyzed | Resistance to enzymatic hydrolysis by DcpS (from C. elegans) (DcpS [2]): hydrolyzed

m^7GpsppG (D1) [Compound 3a]
Resistance to enzymatic hydrolysis by DcpS (human) (DcpS [1]): resistant | Resistance to enzymatic hydrolysis by DcpS (from C. elegans) (DcpS [2]): resistant

m^7GpsppG (D2) [Compound 3b]
Resistance to enzymatic hydrolysis by DcpS (human) (DcpS [1]): resistant | Resistance to enzymatic hydrolysis by DcpS (from C. elegans) (DcpS [2]): resistant
